A compilation of properties of binary mixtures (doi:10.1021/acs.jced.0c00426)

Assay: xn = mol fraction of the nth substance listed
Conditions: 101.3 kPa

CNc1ccccc1 + CCCC[n+]1ccn(C)c1.F[B-](F)(F)F
speed of sound [m/s]
Conditions | x2 = 0 | x2 = 0.0973 | x2 = 0.184 | x2 = 0.2982 | x2 = 0.3909 | x2 = 0.5025 | x2 = 0.5928 | x2 = 0.7005 | x2 = 0.7963 | x2 = 0.901
293.15 K | 1584 | 1598 | 1602 | – | – | 1594 | – | 1586 | – | 1580
298.15 K | – | – | 1587 | 1590 | 1586 | 1580 | 1577 | 1573 | 1571 | 1569
303.15 K | 1546 | 1564 | 1572 | 1575 | 1572 | – | – | – | – | 1558
308.15 K | 1527 | – | 1555 | 1560 | – | 1554 | – | 1550 | – | 1547
313.15 K | 1508 | 1532 | 1540 | 1544 | 1544 | 1543 | 1541 | 1539 | – | 1536
318.15 K | – | 1515 | 1524 | 1529 | 1530 | – | 1528 | 1527 | 1526 | 1525
323.15 K | 1471 | 1498 | 1508 | 1514 | – | 1516 | 1515 | 1516 | 1515 | 1516

CCCC[n+]1ccn(C)c1.F[B-](F)(F)F + CNc1ccccc1
x1 = 1
Conditions | speed of sound [m/s]
303.15 K | 1555
313.15 K | 1532
318.15 K | 1521
323.15 K | 1511

CNc1ccccc1 + CCCCCC[n+]1ccn(C)c1.F[B-](F)(F)F
speed of sound [m/s]
Conditions | x2 = 0 | x2 = 0.1058 | x2 = 0.2201 | x2 = 0.3079 | x2 = 0.395 | x2 = 0.501 | x2 = 0.6034 | x2 = 0.7024 | x2 = 0.804 | x2 = 0.8984
293.15 K | 1584 | – | 1589 | 1580 | 1569 | 1557 | – | 1538 | 1531 | 1526
298.15 K | 1565 | 1578 | 1577 | 1569 | – | 1549 | 1539 | 1532 | 1526 | 1523
303.15 K | 1546 | – | 1560 | 1554 | 1545 | 1535 | – | 1519 | 1513 | 1510
308.15 K | – | 1545 | 1544 | – | – | – | 1512 | 1505 | 1501 | 1497
313.15 K | 1508 | 1527 | 1528 | 1523 | 1516 | 1507 | 1499 | 1493 | 1488 | –
318.15 K | 1489 | – | 1511 | 1507 | 1501 | – | 1486 | 1480 | 1476 | 1472
323.15 K | – | 1490 | 1495 | 1492 | 1486 | 1479 | 1473 | 1467 | 1464 | 1460

CNc1ccccc1 + CCCCCCCCn1cc[n+](C)c1.F[B-](F)(F)F
x2 = 0
Conditions | speed of sound [m/s]
298.15 K | 1565
303.15 K | 1546
308.15 K | 1527
313.15 K | 1508
318.15 K | 1489
323.15 K | 1471

CCCCCCCCn1cc[n+](C)c1.F[B-](F)(F)F + CNc1ccccc1
speed of sound [m/s]
Conditions | x1 = 0.1032 | x1 = 0.2037 | x1 = 0.285 | x1 = 0.383 | x1 = 0.4978 | x1 = 0.5939 | x1 = 0.7016 | x1 = 0.7942 | x1 = 0.9002 | x1 = 1
293.15 K | 1582 | 1571 | – | 1549 | 1536 | 1526 | – | 1509 | 1502 | 1499
298.15 K | – | 1555 | 1545 | 1533 | 1521 | 1512 | 1502 | 1495 | 1488 | 1485
303.15 K | 1548 | 1538 | 1529 | 1518 | 1507 | 1499 | 1489 | – | 1475 | 1472
308.15 K | 1531 | 1522 | 1513 | 1503 | – | – | – | 1469 | 1462 | –
313.15 K | 1514 | – | 1498 | 1489 | 1479 | – | 1463 | 1456 | 1450 | 1446
318.15 K | 1496 | 1491 | 1483 | – | 1465 | 1458 | 1451 | 1444 | 1438 | 1433
323.15 K | 1479 | – | 1468 | 1460 | 1451 | 1444 | – | 1431 | 1426 | 1421

CCCCCC[n+]1ccn(C)c1.F[B-](F)(F)F + CNc1ccccc1
x1 = 1
Conditions | speed of sound [m/s]
298.15 K | 1519
303.15 K | 1507
308.15 K | 1494
313.15 K | 1482
318.15 K | 1470
323.15 K | 1458
